Results on five compounds are retold here after ChEMBL document CHEMBL1127258, “Structurally simplified squalestatins: monocyclic 1,3-dioxane analogues” (Bioorg Med Chem Lett, 1994).

The assay addresses T1, Squalene synthase (Rattus norvegicus, UniProt Q02769).
T1 sequence (Q02769 whole entry): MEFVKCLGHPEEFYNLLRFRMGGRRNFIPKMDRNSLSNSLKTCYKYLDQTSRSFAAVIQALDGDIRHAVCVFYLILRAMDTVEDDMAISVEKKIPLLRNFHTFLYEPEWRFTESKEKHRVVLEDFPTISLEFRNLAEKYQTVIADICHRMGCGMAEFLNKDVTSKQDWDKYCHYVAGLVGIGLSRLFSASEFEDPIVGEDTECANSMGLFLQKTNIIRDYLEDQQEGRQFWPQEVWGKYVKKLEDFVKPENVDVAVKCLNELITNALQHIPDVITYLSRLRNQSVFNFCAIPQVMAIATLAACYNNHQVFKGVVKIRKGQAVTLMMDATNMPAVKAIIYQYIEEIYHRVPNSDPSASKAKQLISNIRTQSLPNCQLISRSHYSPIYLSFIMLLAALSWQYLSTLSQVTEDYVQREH
Nature of the assay: In vitro inhibitory concentration against squalene synthase from male rat liver microsomes. In kind it is tissue-based.
For `C=C(CC[C@]1(C(N)=O)O[C@H](C(=O)O)[C@@](O)(C(=O)O)[C@](COC(=O)/C=C/[C@@H](C)C[C@@H](C)CC)(C(=O)O)O1)[C@@H](OC(C)=O)[C@H](C)Cc1ccccc1`, the half-maximal inhibitory concentration (IC50) (as a rule, the concentration that gives 50% inhibition) was determined as 11 nM.

Turning to `C=C(CC[C@@]12CC[C@@](C(=O)O)(O1)[C@](O)(C(=O)O)[C@@H](C(=O)O)O2)[C@@H](OC(C)=O)[C@H](C)Cc1ccccc1`, the IC50 is 57 nM.

On to `C=C(CC[C@]12O[C@H](C(=O)O)[C@@](O)(C(=O)O)[C@](C(=O)O)(O1)C(O)OC2O)[C@@H](OC(C)=O)[C@H](C)Cc1ccccc1` (stereo not given in full), for which the IC50 worked out at 39 nM.

In the case of `C=C(CC[C@@]12O[C@H](C(=O)O)[C@@](O)(C(=O)O)[C@@](C(=O)O)(COC1=O)O2)[C@@H](OC(C)=O)[C@H](C)Cc1ccccc1`, 200 nM corresponded to half-maximal inhibition (IC50).

`C=C(CC[C@]1(C(N)=O)O[C@H](C(=O)O)[C@@](O)(C(=O)O)[C@](COC(C)=O)(C(=O)O)O1)[C@@H](OC(C)=O)[C@H](C)Cc1ccccc1` had an IC50 of 270 nM.
